# Data as given in ChEMBL document CHEMBL2074176, “Multidrug resistance protein 1 (MRP1, ABCC1) mediates resistance to mitoxantrone via glutathione-dependent drug efflux” (Mol Pharmacol, 2006).
# How the values were obtained:
# Format in all cases: functional, cell-based
# [1] = target: T1, Multidrug resistance-associated protein 1 (Homo sapiens, UniProt P33527); test: TP_TRANSPORTER: transport in etoposide-selected MCF7 cells
# [2] = target: T1, Multidrug resistance-associated protein 1; test: TP_TRANSPORTER: cell accumulation in MCF7/MRP1-M6 cells
# [3] = target: T1, Multidrug resistance-associated protein 1; test: TP_TRANSPORTER: cell accumulation in MCF7/MRP1-M24 cells
# [4] = target: T1, Multidrug resistance-associated protein 1; test: TP_TRANSPORTER: cell accumulation in MCF7/MRP1-10 cells
# [5] = target: T1, Multidrug resistance-associated protein 1; test: TP_TRANSPORTER: ATP- and GSH-dependent transport in MCF7/MRP1-10 cells
# T1 sequence (P33527 whole entry): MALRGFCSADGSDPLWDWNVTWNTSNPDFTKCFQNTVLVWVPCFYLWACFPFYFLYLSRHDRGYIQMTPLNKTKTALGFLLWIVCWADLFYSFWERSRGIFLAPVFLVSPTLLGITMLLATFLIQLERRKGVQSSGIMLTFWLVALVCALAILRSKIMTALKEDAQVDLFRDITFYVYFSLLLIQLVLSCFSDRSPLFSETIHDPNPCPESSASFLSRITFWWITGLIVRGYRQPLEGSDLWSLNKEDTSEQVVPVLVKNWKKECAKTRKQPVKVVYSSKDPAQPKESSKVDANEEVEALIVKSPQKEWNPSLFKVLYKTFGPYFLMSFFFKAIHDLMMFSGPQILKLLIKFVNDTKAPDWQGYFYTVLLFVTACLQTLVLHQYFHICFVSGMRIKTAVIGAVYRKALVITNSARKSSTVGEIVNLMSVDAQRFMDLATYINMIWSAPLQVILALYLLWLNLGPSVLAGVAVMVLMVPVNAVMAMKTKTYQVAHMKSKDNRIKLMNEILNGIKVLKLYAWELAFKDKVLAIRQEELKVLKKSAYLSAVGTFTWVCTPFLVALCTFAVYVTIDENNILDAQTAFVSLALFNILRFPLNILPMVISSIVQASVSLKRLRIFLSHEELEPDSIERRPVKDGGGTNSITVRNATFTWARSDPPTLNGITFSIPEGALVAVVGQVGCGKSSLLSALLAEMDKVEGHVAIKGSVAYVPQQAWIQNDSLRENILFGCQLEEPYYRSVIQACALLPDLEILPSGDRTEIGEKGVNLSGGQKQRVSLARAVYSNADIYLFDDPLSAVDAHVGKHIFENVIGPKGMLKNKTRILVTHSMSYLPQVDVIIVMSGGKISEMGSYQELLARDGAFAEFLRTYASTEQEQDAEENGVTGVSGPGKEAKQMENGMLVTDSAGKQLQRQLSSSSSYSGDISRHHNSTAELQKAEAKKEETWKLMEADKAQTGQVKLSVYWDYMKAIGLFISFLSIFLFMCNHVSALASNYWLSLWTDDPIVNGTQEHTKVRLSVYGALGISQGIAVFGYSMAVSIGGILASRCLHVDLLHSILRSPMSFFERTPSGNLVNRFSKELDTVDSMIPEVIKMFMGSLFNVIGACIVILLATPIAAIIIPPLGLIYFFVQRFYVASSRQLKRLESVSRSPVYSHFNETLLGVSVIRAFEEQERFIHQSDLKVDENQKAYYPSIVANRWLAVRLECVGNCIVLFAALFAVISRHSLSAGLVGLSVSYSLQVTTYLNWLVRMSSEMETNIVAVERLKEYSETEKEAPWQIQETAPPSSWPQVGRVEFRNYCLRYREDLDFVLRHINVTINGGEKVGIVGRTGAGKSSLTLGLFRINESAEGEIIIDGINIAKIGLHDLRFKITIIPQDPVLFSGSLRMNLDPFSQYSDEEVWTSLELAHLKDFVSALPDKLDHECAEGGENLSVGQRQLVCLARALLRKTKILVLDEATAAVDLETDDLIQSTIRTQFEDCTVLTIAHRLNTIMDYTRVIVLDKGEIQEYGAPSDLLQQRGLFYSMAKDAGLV
smiles,measurement,setting,value
O=C1c2c(O)ccc(O)c2C(=O)c2c(NCCNCCO)ccc(NCCNCCO)c21 [MITOXANTRONE],Activity,[1],substrate [+]
same,IC50,[2],1.5 nM
same,IC50,[3],1.5 nM
same,IC50,[4],1.9 nM
same,Activity,[5],substrate [+]
